Test results as given in patent publication US11753413B2, “Substituted pyrrolo[2,1-f][1,2,4]triazine compounds as JAK2 V617F inhibitors” (Incyte Corporation, priority 2020, dated 2023).
pIC50: −log10 of the molar value.

Assays:
[1] = molecular target: T1, catalytic domain (JH1) of human JAK2 (Homo sapiens, UniProt O60674); test: JAK2 LanthaScreen JH1 Binding Assay; parameters: JH1, amino acids 826-1132; FLAG (N); purchased Carna Biosciences 08-445-20N; host or cells: baculovirus expression system; details: read-out: JH1 BIND
Experimental: Example A. JAK2 LanthaScreen JH1 Binding Assay
JAK2 JH1 binding assay utilizes catalytic domain (JH1, amino acids 826-1132) of human JAK2 expressed as N-terminal FLAG-tagged, biotinylated protein in a baculovirus expression system (Carna Biosciences, Product #08-445-20N). The assay was conducted in black 384-well polystyrene plates in a final reaction volume of 20 μL. JAK2 JH1 (1.5 nM) was incubated with compounds (100 nL serially diluted in DMSO) in the presence of 50 nM fluorescent JAK2-JH1 tracer and 0.5 nM Streptavidin-Tb cryptate (Cisbio Part #610SATLB) in assay buffer (50 mM Tris, pH=7.5, 10 mM MgCl2, 0.01% Brij-35, 0.1% BSA, 1 mM EGTA, 5% Glycerol and 5 mM DTT). Non-specific binding was accessed in the presence of 2 mM ATP. After incubation for 2 hours at 25° C., LanthaScreen signals were read on a PHERAstar FS plate reader (BMG LABTECH). Data was analyzed with IDBS XLfit and GraphPad Prism 5.0 software using a four parameter dose response curve to determine IC50 for each compound.
Target sequence in this assay (O60674 826-1132): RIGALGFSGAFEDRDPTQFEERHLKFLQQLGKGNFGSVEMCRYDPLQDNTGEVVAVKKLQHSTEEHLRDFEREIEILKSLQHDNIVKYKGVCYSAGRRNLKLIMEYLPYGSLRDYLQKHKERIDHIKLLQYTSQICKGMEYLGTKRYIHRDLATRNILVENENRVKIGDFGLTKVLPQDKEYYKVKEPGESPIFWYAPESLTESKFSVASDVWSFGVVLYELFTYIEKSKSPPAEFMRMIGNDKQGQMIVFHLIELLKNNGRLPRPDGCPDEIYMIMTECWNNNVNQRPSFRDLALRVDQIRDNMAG

[2] = molecular target: T2, pseudo-kinase domain (JH2) of human Wild Type JAK2 (Homo sapiens, UniProt O60674, F794H/W659A/W777A); test: JAK2 LanthaScreen JH2-WT Binding Assay; details: read-out: JH2 BIND WT
T2 construct: JH2, amino-acids 536-812 with 3 surface mutations; His (C); purchased BPS Bioscience 79463; host or cells: baculovirus expression system
T2 sequence (O60674 536-812 W659A/W777A/F794H): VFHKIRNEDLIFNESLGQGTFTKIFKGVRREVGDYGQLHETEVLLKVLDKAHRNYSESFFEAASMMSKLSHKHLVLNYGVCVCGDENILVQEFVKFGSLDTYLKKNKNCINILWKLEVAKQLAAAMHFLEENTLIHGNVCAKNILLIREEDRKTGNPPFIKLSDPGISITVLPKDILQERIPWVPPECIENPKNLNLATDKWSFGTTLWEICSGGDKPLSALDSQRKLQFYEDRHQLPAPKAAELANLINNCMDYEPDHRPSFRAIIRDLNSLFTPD
Experimental: Example B. JAK2 LanthaScreen JH2-WT Binding Assay
(§1) JAK2 JH2-WT binding assay utilizes pseudo-kinase domain (JH2, amino-acids 536-812 with 3 surface mutations W659A, W777A, F794H) of human Wild Type JAK2 expressed as C-terminal His-Avi-tagged, biotinylated protein in a baculovirus expression system (BPS Bioscience, Catalog #79463). The assay was conducted in black 384-well polystyrene plates in a final reaction volume of 20 μL. JAK2 JH2-WT (0.145 nM) was incubated with compounds (100 nL serially diluted in DMSO) in the presence of 50 nM Fluorescent JAK2-JH2 Tracer (MedChem Express Catalog #HY-102055) and 0.25 nM Streptavidin-Tb cryptate (Cisbio Part #610SATLB) in assay buffer (50 mM Tris, pH=7.5, 10 mM MgCl2, 0.01% Brij-35, 0.1% BSA, 1 mM EGTA, 5% Glycerol and 5 mM DTT). Non-specific binding was accessed in the presence of 2 mM ATP. After incubation for 1 hour at 25° C., LanthaScreen signals were read on a PHERAstar FS plate reader (BMG LABTECH). Data was analyzed with IDBS XLfit and GraphPad Prism 5.0 software using a four parameter dose response curve to determine IC50 for each compound.

[3] = molecular target: T1, catalytic domain (JH1) of human JAK2; test: JAK2 HTRF Enzyme Activity Assay; format: biochemical; parameters: JH1, amino acids 808-1132; His (N); purchased BPS Bioscience 40450; host or cells: baculovirus expression system; details: ATP 30 μM or 1 mM (not given), read-out: ENZ
Experimental: Example D. JAK2 HTRF Enzyme Activity Assay
JAK2 enzyme activity assays utilize catalytic domain (JH1, amino acids 808-1132) of human JAK2 expressed as N-terminal His-tagged protein in a baculovirus expression system (BPS Bioscience, Catalog #40450). The assays was conducted in black 384-well polystyrene plates in a final reaction volume of 20 μL. JAK2 (0.015 nM) was incubated with compounds (100 nL serially diluted in DMSO) in the presence of ATP (30 μM or 1 mM) and 500 nM Biotin-labeled EQEDEPEGDYFEWLE (SEQ ID NO.: 1) peptide (BioSource International, custom synthesis) in assay buffer (50 mM Tris, pH=7.5, 10 mM MgC2, 0.01% Brij-35, 0.1% BSA, 1 mM EGTA, 5% Glycerol and 5 mM DTT) for 60 minutes at 25° C. The reactions were stopped by the addition of 10 μL of detection buffer (50 mM Tris, pH 7.8, 0.5 mg/mL BSA, 150 mM NaCl), supplemented with EDTA, LANCE Eu-W1024 anti-phosphotyrosine (PY20), (PerkinElmer, Catalog #AD0067) and Streptavidin SureLight APC (PerkinElmer Catalog #CR130-100), for a final concentration of 15 mM, 1.5 nM and 75 nM, respectively. HTRF signals were read after 30 minutes incubation at room temperature on a PHERAstar FS plate reader (BMG LABTECH). Data was analyzed with IDBS XLfit and GraphPad Prism 5.0 software using a four parameter dose response curve to determine IC50 for each compound.
Target sequence in this assay (O60674 808-1132): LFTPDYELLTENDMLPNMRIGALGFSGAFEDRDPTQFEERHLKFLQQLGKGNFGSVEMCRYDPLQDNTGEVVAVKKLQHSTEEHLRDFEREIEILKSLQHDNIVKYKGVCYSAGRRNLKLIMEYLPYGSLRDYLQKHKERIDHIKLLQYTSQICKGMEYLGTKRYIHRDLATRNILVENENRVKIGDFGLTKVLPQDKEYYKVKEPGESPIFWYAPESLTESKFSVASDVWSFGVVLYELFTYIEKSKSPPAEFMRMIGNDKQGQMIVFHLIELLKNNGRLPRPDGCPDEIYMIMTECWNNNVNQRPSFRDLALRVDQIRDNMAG

[4] = molecular target: T3, pseudo-kinase domain (JH2) of human V617F mutant JAK2 (Homo sapiens, UniProt O60674, F794H/V617F/W659A/W777A); test: JAK2 LanthaScreen JH2-V617F Binding Assay; details: read-out: JH2 BIND V617F
T3 construct: JH2, amino-acids 536-812 with 3 surface mutations; His (C); purchased BPS Bioscience 79498; host or cells: baculovirus expression system
T3 sequence (O60674 536-812 V617F/W659A/W777A/F794H): as the sequence (O60674 536-812 W659A/W777A/F794H) above, with V82F counted along it
Experimental: Example C. JAK2 LanthaScreen JH2-V617F Binding Assay
as §1, with “JH2-V617F” for “JH2-WT”, “V617F mutant” for “Wild Type”, “#79498).” for “#79463).”, “JH2-V617F (0.26” for “JH2-WT (0.145”

| Structure (SMILES) | pIC50 [1] | pIC50 [2] | pIC50 [3] | pIC50 [4] |
| --- | --- | --- | --- | --- |
| CCS(=O)(=O)Nc1ccc(Cn2cc(-c3ccn4nc(NC(=O)C5CC5)nc(Nc5cccc(C(F)(F)F)c5OC)c34)cn2)cc1 [Example 1, N-(5-(1-(4-(Ethylsulfonamido)benzyl)-1H-pyrazol-4-yl)-4-((2-methoxy-3-(trifluoromethyl)phenyl)amino)pyrrolo[2,1-f][1,2,4]triazin-2-yl)cyclopropanecarboxamide] | < 5.00 | ≥ 7.00 | < 5.00 | ≥ 7.00 |
| COc1c(Nc2nc(NC(=O)C3CC3)nn3ccc(-c4cnn(Cc5ccc(NS(=O)(=O)C6CC6)cc5)c4)c23)cccc1C(F)(F)F [Example 2, N-(5-(1-(4-(Cyclopropanesulfonamido)benzyl)-1H-pyrazol-4-yl)-4-((2-methoxy-3-(trifluoromethyl)phenyl)amino)pyrrolo[2,1-f][1,2,4]triazin-2-yl)cyclopropanecarboxamide] | < 5.00 | ≥ 7.00 | < 5.00 | ≥ 7.00 |
| CCS(=O)(=O)Nc1ccc(Cn2cc(-c3ccn4nc(NC(=O)C5CC5)nc(Nc5cccc(-c6ncn(C)n6)c5OC)c34)cn2)cc1 [Example 3, N-(5-(1-(4-(Ethylsulfonamido)benzyl)-1H-pyrazol-4-yl)-4-((2-methoxy-3-(1-methyl-1H-1,2,4-triazol-3-yl)phenyl)amino)pyrrolo[2,1-f][1,2,4]triazin-2-yl)cyclopropanecarboxamide] | < 5.00 | ≥ 7.00 | < 5.00 | 6.30 to 7.00 |
| COc1c(Nc2nc(NC(=O)C3CC3)nn3ccc(-c4cnn(Cc5ccc(NS(C)(=O)=O)cc5)c4)c23)cccc1-c1ncn(C)n1 [Example 4, N-(4-((2-Methoxy-3-(1-methyl-1H-1,2,4-triazol-3-yl)phenyl)amino)-5-(1-(4-(methylsulfonamido)benzyl)-1H-pyrazol-4-yl)pyrrolo[2,1-f][1,2,4]triazin-2-yl)cyclopropanecarboxamide] | < 5.00 | 6.30 to 7.00 | < 5.00 | 6.30 to 7.00 |
| COc1c(Nc2nc(NC(=O)C3CC3)nn3ccc(-c4cnn(Cc5cccnc5)c4)c23)cccc1C(F)(F)F [Example 5, N-(4-((2-Methoxy-3-(trifluoromethyl)phenyl)amino)-5-(1-(pyridin-3-ylmethyl)-1H-pyrazol-4-yl)pyrrolo[2,1-f][1,2,4]triazin-2-yl)cyclopropanecarboxamide] | < 5.00 | 5.00 to 6.00 | < 5.00 | 5.00 to 6.00 |
| COc1c(Nc2nc(NC(=O)C3CC3)nn3ccc(-c4cnn(Cc5ccc(C(=O)O)cc5)c4)c23)cccc1C(F)(F)F [Example 6, 4-((4-(2-(Cyclopropanecarboxamido)-4-((2-methoxy-3-(trifluoromethyl)phenyl)amino)pyrrolo[2,1-f][1,2,4]triazin-5-yl)-1H-pyrazol-1-yl)methyl)benzoic acid] | 5.00 to 6.00 | ≥ 7.00 | 5.00 to 6.00 | ≥ 7.00 |
